The source of these data is patent US6124293A, “Semi-synthetic ecteinascidins” (The Board of Trustees of the University of Illinois, priority 1999, dated 2000).

SMILES strings stand for the structures.

One assay concerns L1210 murine leukemia. Put plainly: in vitro cytotoxicity to L1210 murine leukemia. It counts as cell-based. As to conditions: potency relative to Et 743. The text has this: In view of the exceptional antitumor properties of the natural ecteinascidins, the present invention has studied the antitumor activities of the semi-synthetic analogs prepared herein.
For assay [1], the system named is P388 murine leukemia, B16 melanoma, Lewis lung carcinoma, and several human tumor xenograft models. To be noted: activity against P388, B16, Lewis lung, human tumor xenografts in mice; cited from earlier work.
For a further assay, the system named is B16 melanoma. To be noted: recent experiments, NCI evaluation; cited from earlier work.

For `COc1cc2c(cc1O)CCN(C)[C@]21CSC2c3c(OC(C)=O)c(C)c4c(c3C(COC1=O)N1C2C2NC(Cc3cc(C)c(OC)c(O)c32)[C@@H]1O)OCO4` (stereo partly drawn) [Iso-Et 743], the “IC50 (Et 743)/IC50” value in the assay with L1210 murine leukemia is given as 17.
In the case of `COc1cc2c(cc1O)CCN[C@]21CSC2c3c(OC(C)=O)c(C)c4c(c3C(COC1=O)N1C2C2c3c(cc(C)c(OC)c3O)CC([C@@H]1O)N2C)OCO4` (stereo partly drawn) [Et 743], the efficacy in vivo entry in assay [1] is given as “promising efficacy in vivo”.
On to `COC(=O)C(C(=O)OC)[C@H]1C2Cc3cc(C)c(OC)c(O)c3C(C3C4SC[C@]5(NCCc6cc(O)c(OC)cc65)C(=O)OCC(c5c6c(c(C)c(OC(C)=O)c54)OCO6)N31)N2C` (stereo partly drawn) [Et 875], for which, in the assay on L1210 murine leukemia, the “IC50 (Et 743)/IC50” value was determined as 1.
Still for that read-out and setting: in the case of `COc1cc2c(cc1O)CCN(C)[C@]21CSC2c3c(OC(C)=O)c(C)c4c(c3C(COC1=O)N1C2C2c3c(cc(C)c(OC)c3O)CC([C@@H]1O)N2C)OCO4` (stereo partly drawn) [Et 757] it was 50; in that of `COc1cc2c(cc1O)CCNC21CSC2c3c(OC(C)=O)c(C)c4c(c3C(COC1=O)N1C(O)C3Cc5cc(C)c(OC)c(O)c5C(C21)N3Cc1ccc(CN2C3Cc5cc(C)c(OC)c(O)c5C2C2C5SCC6(NCCc7cc(O)c(OC)cc76)C(=O)OCC(c6c7c(c(C)c(OC(C)=O)c65)OCO7)N2C3O)cc1)OCO4` (stereo not drawn) [Et 1560], 0.25.
Consider `COc1cc2c(cc1O)CCN[C@]21CSC2c3c(OC(C)=O)c(C)c4c(c3C(COC1=O)N1C2C2NC(Cc3cc(C)c(OC)c(O)c32)[C@@H]1O)OCO4` (stereo partly drawn) [Et 729], for which the “IC50 (Et 743)/IC50” value in the assay with L1210 murine leukemia amounted to 10. Besides, in the assay with B16 melanoma, the “survivors 60 days following infection with B16 melanoma” value was 8 of 10. Moreover, the efficacy in vivo entry in assay [1] is on record as “promising efficacy in vivo”.
In the case of `COc1c(C)cc2c(c1O)[C@H]1N[C@@H](C2)[C@H](O)N2[C@H]1[C@@H]1SC[C@]3(NCCc4c3[nH]c3ccccc43)C(=O)OC[C@H]2c2c3c(c(C)c(OC(C)=O)c21)OCO3` [Et 722], the efficacy in vivo result in assay [1] is “promising efficacy in vivo”.
